Test results as given in patent publication US20100239596A1, “GRP78 AND TUMOR ANGIOGENESIS” (UNIVERSITY OF SOUTHERN CALIFORNIA, priority 2007, published 2010).

How the values were obtained:
[1] = system: TuBEC (tumor-associated brain endothelial cells); type: cell-based; details: seven days; for TuBEC cell death, agent alone: TMZ 300 μM, CPT-11 100 μM, Eto 50 μM, EGCG 20 μM
Method: Cell death ELISA. EC were treated with etoposide (Calbiochem; La Jolla, Calif.), temozolomide (TMZ) (Schering-Plough; Kenilworth, N.J.), CPT-11 (Pharmacia; New York, N.Y.), the caspase inhibitor Q-VDOPH (Calbiochem), or EGCG (Sigma-Aldrich, St. Louis, Mo.), then assayed using the Cell Death Detection ELISA Plus kit (Roche Diagnostics; Indianapolis, Ind.) according to manufacturer's protocol. Percent death was calculated based on 100% positive cell death control.
Lentiviral construct. The sequences of siRNA, the isolation of human Grp78 cDNA and their subcloning into lentiviral constructs are previously described (Dong et al, Cancer Res., 65:5785-91, 2005). The sequences of the siRNA against human GRP78 are: siGRP78A: 5′-[…]-3′ (SEQ ID NO:1) and siGRP78B: 5′-[…]-3′ (SEQ ID NO:2). The sequences of the control siRNA are: sicontrol A: 5′-[…]-3′ (SEQ ID NO:3); sicontrol B: 5′-[…]-3′ (SEQ ID NO:4). For construction of lentivirus expressing GRP78, full length human GRP78 was prepared by reverse transcription of total HEK293T RNA followed by a 2-step PCR amplification and subcloning into the BamHI/XhoI sites of pcDNA3 (Invitrogen; Carlsbad, Calif.) to yield pcDNA3-hGRP78. Non-replicating lentiviral vectors co-expressing bicistronic human GRP78 and EGFP linked via the EMCV IRES were produced using the pLenti6/V5-D-TOPO and VIRAPOWER™ Lentivirus Expression system (Invitrogen, Carlsbad, Calif.). Initially, EGFP (Clonetech; Mountain View, Calif.) was inserted into the CMV driven expression cassette by TOPO cloning. […] The human GRP78 gene digested from pcDNA3-hGRP78 using XbaI and XhoI was ligated into pLenti6/EGFP between the CMV promoter and the EGFP gene. Next, an insert encoding the EMCV IRES, was generated by PCR from pIRES-EGFP (Clonetech) and subcloned into the XhoI/AgeI sites of pLenti6/huGRP78 EGFP. The IRES sequence was inserted between the human GRP78 gene and the EGFP allowing hGRP78 expression to be monitored by EGFP fluorescence. The manufacturer's manual was followed for TOPO cloning and production of viral particles. For infection, 10^4 cells were plated in 6-well dishes and infected with lentivirus at titers of 5×10^6 units/ml (TU/ml). Infected cells, monitored for GFP, were used when cultures were 100% GFP positive.
To test whether GRP78 confers drug resistance to TuBEC, TuBEC cultures were infected with lentivirus expressing siGRP78A and siCtr1A. Five days post infection, cultures were left untreated (media), or treated with CPT-11 [100 μM], etoposide (Eto) [50 μM] or temozolomide (MZ) [300 μM]. After treatment for seven days, the cells were analyzed for cytotoxicity.
To target GRP78 through a small molecule approach, TuBEC were incubated with EGCG alone or in combination with TMZ, CPT-11, and Eto. Cytotoxicity was measured after seven days (FIG. 3D).

[2] = system: BEC (normal human brain endothelial cells); assay: MTT cell viability assay, BEC; type: cell-based; details: 50 μM etoposide, 72 hours, vs DMSO vehicle
Method: (§1) Cell Culture. Endothelial cells (EC) were isolated from normal human brain tissue or human glioma tissue as previously described (Charalambous et al, J. Neurosurg., 102:699-705, 2005; Charalambous et al, Exp Cell Res., 313:1192-202, 2007). All experiments were performed on subconfluent (60-80%) cultures, in passages 4 to 6 only.
(§2) MTT cell viability assay. Cells were plated in triplicate (3×10^3 cells/well; […]) into 96-well plates coated with 1% gelatin. The 3-(4,5-dimethylthiazol-2-yl)-2,5-diphenyltetrazolium bromide (MTT) assay was performed according to the manufacturer's instructions (Sigma-Aldrich, St. Louis, Mo.). Percent cell viability was calculated relative to vehicle-treated controls.
(§3) To compare the sensitivities of TuBEC and BEC to chemotherapeutic agents, cells were treated with the topoisomerase II inhibitor, etoposide [1-50 μM] or DMSO (vehicle) [0.1%] for 72 hours, and cytoxicity was assessed using the MTT assay, which was performed according to manufacturer's protocol (Sigma Aldrich; St. Louis, Mo.).

[3] = system: TuBEC (tumor-associated brain endothelial cells); assay: MTT cell viability assay, TuBEC; type: cell-based, human; details: 50 μM etoposide, 72 hours, vs DMSO vehicle
Method: as §1, §2, §3

Compound: (−)-epigallocatechin gallate [EGCG]
- cell death, EGCG in combination with CPT-11 ([1]; EGCG 20 μM + CPT-11 100 μM, p=0.005): 46%
- cell death, EGCG in combination with Eto ([1]; EGCG 20 μM + Eto 50 μM, p=0.001): 49%
- cell death, EGCG in combination with TMZ ([1]; EGCG 20 μM + TMZ 300 μM, p=0.003): 35%
- TuBEC cell death, agent alone [1]: did not cause TuBEC cell death

Compound: CC(C)[C@H](NC(=O)c1ccc2ccccc2n1)C(=O)N[C@@H](CC(=O)O)C(=O)COc1c(F)cccc1F [Q-VDOPH]
- effect of caspase inhibition on cell death induced by CPT-11, Eto or TMZ with reduced GRP78 ([1]; Q-VDOPH [10 mM], TuBEC infected with siGRP78B): blocked cell death

Compound: CCc1c2c(nc3ccc(OC(=O)N4CCC(N5CCCCC5)CC4)cc13)-c1cc3c(c(=O)n1C2)COC(=O)[C@]3(O)CC [CPT-11]
- TuBEC cell death, agent alone [1]: did not cause TuBEC cell death

Compound: COc1cc([C@@H]2c3cc4c(cc3[C@@H](O[C@@H]3O[C@@H]5CO[C@@H](C)O[C@H]5[C@H](O)[C@H]3O)[C@H]3COC(=O)[C@H]23)OCO4)cc(OC)c1O [etoposide]
- BEC died (cytotoxicity, MTT assay) [2]: over 60%
- cell death of TuBEC (cytotoxicity, MTT assay) [3]: no significant cell death
- TuBEC cell death, agent alone [1]: did not cause TuBEC cell death
